From the supplement of paper PMC11781733
Counter-ions that a name gives are not always drawn.

Experiments:
Conditions in all cases: exposure time: 15 min to 3 h acute
Dugesia japonica [1] = assay: loss of phototaxis incidence (% planarians (vehicle-normalised)); higher = higher incidence or increase relative to vehicle control
Description: (§1)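 Adult asexual Dugesia japonica planarians (1 per well, 48-well plate, n=24 over technical triplicates) were exposed acutely (15 min to 3 h) to each compound (0.5% DMSO or water vehicle) and screened on a robotic platform for crawl-out, stickiness, body shape, phototaxis, noxious-heat scrunching and locomotion endpoints. Binary endpoints are incidence rate x100 normalised to in-plate vehicle controls. Continuous endpoints are the median response normalised to the plate vehicle median, as % change or difference. Negative incidences after vehicle subtraction were set to 0.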

Dugesia japonica [2] = assay: loss of heat-induced scrunching incidence (% planarians (vehicle-normalised)); higher = higher incidence or increase relative to vehicle control
Description: as §1

Dugesia japonica [3] = assay: speed in dark vs vehicle (% change vs vehicle); higher = higher incidence or increase relative to vehicle control
Description: as §1

Dugesia japonica [4] = assay: any abnormal body shape incidence (% planarians (vehicle-normalised)); higher = higher incidence or increase relative to vehicle control
Description: as §1

Dugesia japonica [5] = assay: noxious heat displacement strength vs vehicle (% change vs vehicle); higher = higher incidence or increase relative to vehicle control
Description: as §1

Dugesia japonica [6] = assay: pharynx extrusion incidence (% planarians (vehicle-normalised)); higher = higher incidence or increase relative to vehicle control
Description: as §1

Dugesia japonica [7] = assay: contracted body shape incidence (% planarians (vehicle-normalised)); higher = higher incidence or increase relative to vehicle control
Description: as §1

Dugesia japonica [8] = assay: total locomotor bursts minus vehicle (bursts difference vs vehicle); higher = higher incidence or increase relative to vehicle control
Description: as §1

Dugesia japonica [9] = assay: speed second 30 s blue light vs vehicle (% change vs vehicle); higher = higher incidence or increase relative to vehicle control
Description: as §1

Dugesia japonica [10] = assay: resting fraction in dark vs vehicle (difference in fraction x100 vs vehicle); higher = higher incidence or increase relative to vehicle control
Description: as §1

Dugesia japonica [11] = assay: stickiness incidence (% planarians (vehicle-normalised)); higher = higher incidence or increase relative to vehicle control
Description: as §1

Dugesia japonica [12] = assay: resting fraction in blue light vs vehicle (difference in fraction x100 vs vehicle); higher = higher incidence or increase relative to vehicle control
Description: as §1

Dugesia japonica [13] = assay: speed first 30 s blue light vs vehicle (% change vs vehicle); higher = higher incidence or increase relative to vehicle control
Description: as §1

Dugesia japonica [14] = assay: hyperkinesis incidence (% planarians (vehicle-normalised)); higher = higher incidence or increase relative to vehicle control
Description: as §1

Dugesia japonica [15] = assay: anxiety (time in outer well region) vs vehicle (% change vs vehicle); higher = higher incidence or increase relative to vehicle control
Description: as §1

Dugesia japonica [16] = assay: C-shape incidence (% planarians (vehicle-normalised)); higher = higher incidence or increase relative to vehicle control
Description: as §1

Dugesia japonica [17] = assay: crawl-out incidence (% planarians); higher = higher incidence or increase relative to vehicle control
Description: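 Adult asexual Dugesia japonica planarians (1 per well, 48-well plate, n=24 over technical triplicates) were exposed acutely (15 min to 3 h) to each compound (0.5% DMSO or water vehicle) and screened on a robotic platform for crawl-out, stickiness, body shape, phototaxis, noxious-heat scrunching and locomotion endpoints. Binary endpoints are incidence rate x100. Continuous endpoints are the median response normalised to the plate vehicle median, as % change or difference. Negative incidences after vehicle subtraction were set to 0.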

Dugesia japonica [18] = assay: corkscrew incidence (% planarians (vehicle-normalised)); higher = higher incidence or increase relative to vehicle control
Description: as §1

Row | SMILES | loss of phototaxis incidence (Dugesia japonica [1]) | loss of heat-induced scrunching incidence (Dugesia japonica [2]) | speed in dark (Dugesia japonica [3]) | any abnormal body shape incidence (Dugesia japonica [4]) | noxious heat displacement strength (Dugesia japonica [5]) | pharynx extrusion incidence (Dugesia japonica [6]) | contracted body shape incidence (Dugesia japonica [7]) | total locomotor bursts minus vehicle (Dugesia japonica [8]) | speed second 30 s blue light (Dugesia japonica [9]) | resting fraction in dark (Dugesia japonica [10]) | stickiness incidence (Dugesia japonica [11]) | resting fraction in blue light (Dugesia japonica [12]) | speed first 30 s blue light (Dugesia japonica [13]) | hyperkinesis incidence (Dugesia japonica [14]) | anxiety (Dugesia japonica [15]) | C-shape incidence (Dugesia japonica [16]) | crawl-out incidence (Dugesia japonica [17]) | corkscrew incidence (Dugesia japonica [18])
1 | O=C1CC2(CCCC2)CC(=O)N1CCCCN1CCN(c2ncccn2)CC1 [buspirone] (10 µM) | 25 | 8.33 | -20.5 | 20.8 | -46.4 | 0 | 4.17 | 6.25 | -54.8 | 16.7 | 16.7 | 26.6 | -68.5 | 20.8 | -1.55 | 0 | 0 | 0
2 | O=C1CC2(CCCC2)CC(=O)N1CCCCN1CCN(c2ncccn2)CC1 [buspirone] (31.6 µM) | 54.2 | 62.5 | -11.1 | 16.7 | -57 | 0 | 0 | 3.5 | -74.1 | 3.7 | 16.7 | 34.3 | -64.5 | 16.7 | 7.76 | 0 | 0 | 0
3 | O=C1CC2(CCCC2)CC(=O)N1CCCCN1CCN(c2ncccn2)CC1 [buspirone] (100 µM) | 42.9 | 57.1 | -41 | 9.52 | -53.2 | 0 | 0 | 0.5 | -81.2 | 43 | 19.1 | 44.9 | -79.9 | 4.76 | -20.5 | 0 | 12.5 | 4.76
4 | CN(C)CCCC1(c2ccc(F)cc2)OCc2cc(C#N)ccc21 (stereo not given) [citalopram hydrobromide] (31.6 µM) | 16.7 | 33.3 | 3.2 | 16.7 | -16.4 | 0 | 0 | 1.25 | -6.94 | 1.41 | ≤ 0 | 0 | 6.16 | 16.7 | 4.85 | 0 | 0 | 0
5 | CN(C)CCCC1(c2ccc(F)cc2)OCc2cc(C#N)ccc21 (stereo not given) [citalopram hydrobromide] (100 µM) | ≤ 0 | 25 | -4.27 | 8.33 | -22.5 | 0 | 0 | 1.5 | -0.52 | 1.35 | 8.33 | 0 | -6.21 | 8.33 | 15.3 | 0 | 0 | 0
6 | CN(C)CCCC1(c2ccc(F)cc2)OCc2cc(C#N)ccc21 (stereo not given) [citalopram hydrobromide] (316 µM) | 4.35 | 13 | 10.9 | 13 | -25.1 | 0 | 0 | -3.5 | 6.83 | 1.16 | 8.7 | 0.559 | 1.47 | 13 | 12.2 | 0 | 0 | 0
7 | CN(C)CCCC1(c2ccc(F)cc2)OCc2cc(C#N)ccc21 (stereo not given) [citalopram hydrobromide] (1000 µM) | 16.7 | 8.33 | -48.7 | 83.3 | -42.7 | 0 | 0 | 40.2 | -71.1 | 17.8 | ≤ 0 | 16.8 | -57.3 | 83.3 | 11.2 | 0 | 0 | 0
8 | CN1CCN(C2=Nc3cc(Cl)ccc3Nc3ccccc32)CC1 [clozapine] (3.16 µM) | 16.7 | 33.3 | -74 | 20.8 | -40.6 | 0 | 8.33 | 26.8 | -87.9 | 74.7 | 20.8 | 69.7 | -90.3 | 20.8 | -27.9 | 0 | 0 | 4.17
9 | CN1CCN(C2=Nc3cc(Cl)ccc3Nc3ccccc32)CC1 [clozapine] (10 µM) | 29.2 | 75 | -75.7 | 58.3 | -39.6 | 0 | 8.33 | 15.2 | -90.5 | 73.9 | 25 | 70.9 | -89.8 | 54.2 | -100 | 4.17 | 0 | 4.17
10 | CN1CCN(C2=Nc3cc(Cl)ccc3Nc3ccccc32)CC1 [clozapine] (31.6 µM) | 54.2 | 66.7 | -76.4 | 87.5 | -34.2 | 0 | 4.17 | -3 | -91.3 | 77.6 | ≤ 0 | 75.8 | -93.4 | 50 | -27.4 | 29.2 | 0 | 29.2
11 | CN1CCN(C2=Nc3cc(Cl)ccc3Nc3ccccc32)CC1 [clozapine] (100 µM) | 62.5 | 79.2 | -79.5 | 81 | -29.6 | 0 | 28.6 | -4.5 | -96.2 | 77.6 | ≤ 0 | 87.8 | -96.9 | 23.8 | -11.2 | 57.1 | 0 | 9.52
12 | CN1C(=O)CN=C(c2ccccc2)c2cc(Cl)ccc21 [diazepam] (3.16 µM) | 41.7 | 29.2 | 16.7 | 0 | -6.66 | 0 | 0 | -3 | -4.64 | -5.99 | ≤ 0 | -0.17 | 21.1 | 0 | -3.35 | 0 | 0 | 0
13 | CN1C(=O)CN=C(c2ccccc2)c2cc(Cl)ccc21 [diazepam] (10 µM) | 50 | 12.5 | 15.9 | 0 | -17.4 | 0 | 0 | -1 | -16.1 | -5.91 | 21.7 | 0.83 | 0.43 | 0 | 0.94 | 0 | 0 | 0
14 | CN1C(=O)CN=C(c2ccccc2)c2cc(Cl)ccc21 [diazepam] (31.6 µM) | 8.33 | 16.7 | -43.7 | 41.7 | -21.6 | 25 | 8.33 | 6.5 | -63 | 56.8 | 16.7 | 17.2 | -43.1 | 8.33 | -8.02 | 25 | 0 | 4.17
15 | CN1C(=O)CN=C(c2ccccc2)c2cc(Cl)ccc21 [diazepam] (100 µM) | 29.2 | 37.5 | -72.2 | 100 | -45.6 | 37.5 | 12.5 | 55 | -87.6 | 48.6 | ≤ 0 | 50.2 | -84.2 | 16.7 | -36.9 | 62.5 | 0 | 20.8
